Measured values from article PMC11258331 (Scientific Reports, 2024).
Like-named read-outs stand apart in the source and are kept apart here. Marks after values point to notes of the source that are not given here.

Experiments:
[1] = system: platelet aggregation induced by collagen; assay: Collagen (5 μg/ml)-induced platelet aggregation, light transmission aggregometry; format: in vivo, human
Method: (§1) PD assessments were performed on Days 1 (≤ 24 h) and 5 (≤ 72 h) of each period (Supplementary Table 8); assessments included aPTT[18], FXIc[18], and bleeding time (assessed according to the PPD® Laboratories [Austin, TX] procedure where a blood pressure cuff, situated above the incision site, provided pressure at 40 mmHg and blood from the incision was wicked with filter paper every 30 s until cessation to record bleeding time). In addition, AA (1 mM), ADP) (20 µM)-, and collagen (5 μg/ml)-induced platelet aggregation assays were performed using light transmission aggregometry (PPD® Laboratories) and performed on Days 1 and 5 (≤ 24 h) for only Period 1.

healthy participants [2] = assay: Adverse events and bleeding-related AEs by treatment, phase I DDI study;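 further: counts from medical review of adverse event and bleeding-related adverse event reports, collected at selected times across the dosing interval, single US site, randomised 1:1:1 to one study part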
Method: Participants underwent screening evaluations to determine eligibility within 35 days of study drug administration, and eligible participants were randomly assigned 1:1:1 to a single part of the study.
Safety assessments were performed at selected times throughout the dosing interval (Supplementary Table 7). The assessments were based on medical review of AE and bleeding-related AE reports, and the results of vital sign measurements, ECG measurements, physical examinations, and clinical laboratory tests.

[3] = Plasma pharmacokinetics (LC-MS/MS, noncompartmental; GMR by linear mixed-effects model); details: for Increase of AUC(TAU) / Increase of Cmax: Treatment I (with milvexian) vs Treatment H (aspirin alone); for Cmax / Tmax / AUC / half-life: human, oral; for AUC: AUC(TAU); for half-life: T1/2, arithmetic mean [n] (SD);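 on all read-outs here: participants at one US clinical research site, randomized 1:1:1 to a single study part, with 90% CIs from a mixed-effects model on log-transformed PK parameters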
Method: (§2) The study (ClinicalTrials.gov Identifier: NCT03698513) was conducted at 1 clinical research center in the United States. […] Participants underwent screening evaluations to determine eligibility within 35 days of study drug administration, and eligible participants were randomly assigned 1:1:1 to a single part of the study.
(§3) All statistical analyses and calculations were performed using SAS® software (SAS Institute, Inc., Cary, North Carolina; version 9.3). All safety and plasma PK/PD data were summarized using descriptive statistics. Descriptive summaries were presented for continuous variables using number of subjects (N), mean, SD; median, minimum, and maximum. […] CIs were constructed using a linear mixed-effects model with treatment as a fixed effect and measurements within participants as repeated measures fitted to the log-transformed PK parameters.

[4] = system: platelet aggregation induced by adenosine diphosphate (ADP); assay: ADP (20 µM)-induced platelet aggregation, light transmission aggregometry; format: in vivo, human
Method: as §1

[5] = system: arachidonic acid (AA)-induced platelet aggregation; assay: AA (1 mM)-induced platelet aggregation, light transmission aggregometry; format: in vivo, human
Method: as §1

[6] = in vivo
Method: as §2, §3

[7] = cited from earlier work
[8] = system: activated partial thromboplastin time (aPTT); assay: Activated partial thromboplastin time (aPTT); format: in vivo, human; details: postdose on Day 5
Method: as §1

healthy participants [9] = assay: Bleeding time (PPD Laboratories procedure); format: in vivo, human; details: milvexian alone (Treatments B, D, G)
Method: as §1

[10] = system: patients with acute ischemic stroke or high risk transient ischemic attack; details: 25 mg QD or 25, 50, 100, 200 mg BID on background of aspirin and clopidogrel; cited from earlier work
[11] = system: patients who underwent knee arthroplasty; details: postoperative treatment, 25 mg QD to 200 mg BID; cited from earlier work
[12] = system: cytochrome P450 (CYP)–3A4; details: spray-dried dispersion formulation studies; cited from earlier work
[13] = plasma, geometric mean (90% CI), Day 1, plasma, Treatment A (milvexian + aspirin + clopidogrel), Part 1
[14] = plasma, geometric mean (90% CI), Day 1, plasma, Treatment C (placebo + aspirin + clopidogrel), Part 1
[15] = plasma, geometric mean (90% CI), Day 1, plasma, Treatment H (placebo + aspirin), Part 3
[16] = plasma, geometric mean (90% CI), Day 1, plasma, Treatment I (milvexian + aspirin), Part 3
[17] = plasma, geometric mean [n] (90% CI), Day 5, plasma, Treatment C (placebo + aspirin + clopidogrel), Part 1
[18] = plasma, geometric mean [n] (90% CI), Day 5, plasma, Treatment H (placebo + aspirin), Part 3
[19] = plasma, Tmax, median (range), Day 1, plasma, Treatment A (milvexian + aspirin + clopidogrel), Part 1
[20] = plasma, Tmax, median (range), Day 1, plasma, Treatment C (placebo + aspirin + clopidogrel), Part 1
[21] = plasma, Tmax, median (range), Day 1, plasma, Treatment H (placebo + aspirin), Part 3
[22] = plasma, Tmax, median (range), Day 1, plasma, Treatment I (milvexian + aspirin), Part 3
[23] = plasma, Tmax, median [n] (range), Day 5, plasma, Treatment C (placebo + aspirin + clopidogrel), Part 1
[24] = plasma, Tmax, median [n] (range), Day 5, plasma, Treatment H (placebo + aspirin), Part 3
[25] = milvexian alone (Treatments B, D, G), Days 1 and 5
[26] = Day 1, Treatment A vs Treatment B (milvexian alone)
[27] = Day 1, plasma, Treatment F (milvexian + clopidogrel), Part 2
[28] = plasma, geometric mean [n] (90% CI), Day 5, plasma, Treatment D (milvexian alone), Part 2

## CC(=O)Oc1ccccc1C(=O)O [Aspirin, acetylsalicylic acid, reference compound]
[1]; drug alone (Treatment E or H)
  Inhibition of collagen-induced aggregation compared with baseline: ~ 25%
Healthy participants [2]; Part 3 (Treatments G-I)
  Anal fissure hemorrhage: 0 n (%)
  Contusion: 0 n (%)
  Deaths: 0 n (%)
  Discontinuations due to AEs: 0 n (%)
  Epistaxis: 1 (2.6)^‡‡ n (%)
  Gingival bleeding: 0 n (%)
  Serious AEs: 0 n (%)
  Total participants with an AE: 9 (23.7) n (%)
  Total participants with bleeding event(s): 1 (2.6) n (%)
  Vessel puncture site bruise: 0 n (%)
Healthy participants [2]; bleeding AE
  Events of epistaxis reported by a participant: 1 events
Healthy participants [2]; by treatment, all parts
  Percentage of participants reporting AEs: 23.7%
[3]; Day 1
  Increase of AUC(TAU): 24%
  Increase of Cmax: 40%
[3]; Day 5
  Increase of AUC(TAU): 19%
  Increase of Cmax: 33%
[3]; [13]
  Cmax: 3050 ng/mL
[3]; [14]
  Cmax: 2970 ng/mL
[3]; [15]
  Cmax: 2450 ng/mL
[3]; [16]
  Cmax: 3440 ng/mL
[3]; [17]
  Cmax: 2890 ng/mL
[3]; [18]
  Cmax: 2670 ng/mL
[3]; [19]
  Tmax: 1 h
[3]; [20]
  Tmax: 1 h
[3]; [21]
  Tmax: 0.5 h
[3]; [22]
  Tmax: 0.5 h
[3]; [23]
  Tmax: 0.5 h
[3]; [24]
  Tmax: 0.508 h
[4]; drug alone (Treatment E or H)
  Inhibition of ADP-induced aggregation compared with baseline: ~ 15%
[5]; drug alone (Treatment E or H)
  Inhibition of AA-induced aggregation compared with baseline: ~ 95%

## O=C(O)[C@H](c1ccccc1Cl)N1CCc2sccc2C1 [Clopidogrel acid]
[6]; human
  Mean T1/2: approximately 8 h
[6]
  Reduction of Cmax: 14%

## C[C@@H]1CCC[C@H](n2cnc(-c3cc(Cl)ccc3-n3cc(Cl)nn3)cc2=O)c2cc(ccn2)-c2c(cnn2C(F)F)NC1=O [Milvexian]
[7]
  Urine excretion: < 20%
[8]
  Time by which aPTT returned to baseline: ≤ 72 h
Healthy participants [9]
  Effect on bleeding time: did not increase bleeding times
[1]; [25]
  Change of collagen-induced platelet aggregation compared with baseline: < 10%
Healthy participants [2]; Part 2 (Treatments D-F)
  Anal fissure hemorrhage: 0 n (%)
  Contusion: 0 n (%)
  Deaths: 0 n (%)
  Discontinuations due to AEs: 1 (2.8)^§ n (%)
  Epistaxis: 0 n (%)
  Gingival bleeding: 0 n (%)
  Serious AEs: 0 n (%)
  Total participants with an AE: 5 (13.9) n (%)
  Total participants with bleeding event(s): 0 n (%)
  Vessel puncture site bruise: 0 n (%)
Healthy participants [2]; Part 3 (Treatments G-I)
  Anal fissure hemorrhage: 1 (2.7) n (%)
  Contusion: 0 n (%)
  Deaths: 0 n (%)
  Discontinuations due to AEs: 1 (2.7)^¶ n (%)
  Epistaxis: 0 n (%)
  Gingival bleeding: 0 n (%)
  Serious AEs: 0 n (%)
  Total participants with an AE: 6 (16.2) n (%)
  Total participants with bleeding event(s): 1 (2.7) n (%)
  Vessel puncture site bruise: 0 n (%)
Healthy participants [2]; bleeding AE, Part 3, Treatment G
  Events of anal fissure hemorrhage reported by a single participant: 1 events
[3]; [26]
  Reduction of AUC(TAU): 15%
  Reduction of Cmax: 17%
[3]; Day 1, plasma, Treatment A (milvexian + aspirin + clopidogrel), Part 1
  Tmax, median (range): 4.00 (2.13, 6.02) h
[3]; Day 1, plasma, Treatment B (milvexian alone), Part 1
  Tmax, median (range): 3.00 (2.00, 4.13) h
[3]; Day 1, plasma, Treatment D (milvexian alone), Part 2
  Tmax, median (range): 4.00 (2.00, 6.00) h
[3]; [27]
  AUC(TAU), geometric mean [n] (90% CI): 5042 (4621, 5503) ng•h/mL
  Tmax, median (range): 4.00 (2.00, 4.13) h
[3]; Day 1, plasma, Treatment G (milvexian alone), Part 3
  Tmax, median (range): 4.00 (2.00, 6.02) h
[3]; Day 1, plasma, Treatment I (milvexian + aspirin), Part 3
  Tmax, median (range): 4.00 (2.00, 6.03) h
[3]; Day 5, plasma, Treatment B (milvexian alone), Part 1
  Tmax, median [n] (range): 3.00 (0.00, 6.00) h
[3]; Day 5, plasma, Treatment F (milvexian + clopidogrel), Part 2
  Tmax, median [n] (range): 4.00 (1.00, 6.00) h
[3]; plasma, geometric mean [n] (90% CI), Day 1, plasma, Treatment B (milvexian alone), Part 1
  AUC: 5610 ng·h/mL
[3]; [28]
  AUC: 22000 ng·h/mL
  Cmax: 2670 ng/mL
[3]; [13]
  Cmax: 718 ng/mL
[3]; plasma, geometric mean (90% CI), Day 1, plasma, Treatment B (milvexian alone), Part 1
  Cmax: 868 ng/mL
[3]; plasma, geometric mean (90% CI), Day 1, plasma, Treatment D (milvexian alone), Part 2
  Cmax: 898 ng/mL
[3]; plasma, geometric mean (90% CI), Day 1, plasma, Treatment F (milvexian + clopidogrel), Part 2
  Cmax: 817 ng/mL
[3]; plasma, geometric mean (90% CI), Day 1, plasma, Treatment G (milvexian alone), Part 3
  Cmax: 867 ng/mL
[3]; [16]
  Cmax: 850 ng/mL
[3]; plasma, geometric mean [n] (90% CI), Day 5, plasma, Treatment B (milvexian alone), Part 1
  Cmax: 2690 ng/mL
[3]; plasma, geometric mean [n] (90% CI), Day 5, plasma, Treatment F (milvexian + clopidogrel), Part 2
  Cmax: 2500 ng/mL
[3]; plasma, Median Tmax, across Treatments A and B
  Tmax: 3 to 4 h
[3]; plasma, Tmax, median [n] (range), Day 5, plasma, Treatment D (milvexian alone), Part 2
  Tmax: 3.05 h
[10]
  Dose response for composite of symptomatic ischemic stroke or covert brain infarction: did not produce a statistically significant dose response
[4]; [25]
  Change of ADP-induced platelet aggregation compared with baseline: < 10%
[5]; milvexian alone (Treatments B, D, G), not consistent, no correlation with milvexian concentration
  Effect on AA-induced platelet aggregation: a decrease in arachidonic acid (AA)-induced platelet aggregation was observed
[11]
  Effect on incidence of venous thromboembolism: reduced the incidence of venous thromboembolism in a dose-dependent manner
[12]
  Route of metabolism: predominantly metabolized by cytochrome P450 (CYP)–3A4

## O=C(O)c1ccccc1O [Salicylic acid, salicylic acid]
[3]; plasma, geometric mean [n] (90% CI), Day 1, plasma, Treatment A (milvexian + aspirin + clopidogrel), Part 1
  AUC: 92700 ng·h/mL
[3]; plasma, geometric mean [n] (90% CI), Day 1, plasma, Treatment C (placebo + aspirin + clopidogrel), Part 1
  AUC: 93500 ng·h/mL
[3]; plasma, geometric mean [n] (90% CI), Day 1, plasma, Treatment H (placebo + aspirin), Part 3
  AUC: 93300 ng·h/mL
[3]; plasma, geometric mean [n] (90% CI), Day 1, plasma, Treatment I (milvexian + aspirin), Part 3
  AUC: 93600 ng·h/mL
[3]; [17]
  AUC: 92000 ng·h/mL
  Cmax: 17300 ng/mL
[3]; [18]
  AUC: 92500 ng·h/mL
  Cmax: 16500 ng/mL
[3]; [13]
  Cmax: 17600 ng/mL
[3]; [14]
  Cmax: 18100 ng/mL
[3]; [15]
  Cmax: 16500 ng/mL
[3]; [16]
  Cmax: 16300 ng/mL
[3]; plasma, Day 1, plasma, Treatment A (milvexian + aspirin + clopidogrel), Part 1
  half-life: 133 min
[3]; plasma, Day 1, plasma, Treatment C (placebo + aspirin + clopidogrel), Part 1
  half-life: 135 min
[3]; plasma, Day 1, plasma, Treatment H (placebo + aspirin), Part 3
  half-life: 144 min
[3]; plasma, Day 1, plasma, Treatment I (milvexian + aspirin), Part 3
  half-life: 143 min
[3]; plasma, Day 5, plasma, Treatment C (placebo + aspirin + clopidogrel), Part 1
  half-life: 134 min
[3]; plasma, Day 5, plasma, Treatment H (placebo + aspirin), Part 3
  half-life: 143 min
[3]; [19]
  Tmax: 2 h
[3]; [20]
  Tmax: 2 h
[3]; [21]
  Tmax: 2.03 h
[3]; [22]
  Tmax: 2 h
[3]; [23]
  Tmax: 2.02 h
[3]; [24]
  Tmax: 3 h
